The compounds below were run against T1, POsterior Segregation (Caenorhabditis elegans, UniProt G5EF15) (assay: disruptors of C. elegans POS-1 RNA interaction – biochemical, fluorescence polarization, dose response (AID 1964)).
T1 sequence (G5EF15 whole entry): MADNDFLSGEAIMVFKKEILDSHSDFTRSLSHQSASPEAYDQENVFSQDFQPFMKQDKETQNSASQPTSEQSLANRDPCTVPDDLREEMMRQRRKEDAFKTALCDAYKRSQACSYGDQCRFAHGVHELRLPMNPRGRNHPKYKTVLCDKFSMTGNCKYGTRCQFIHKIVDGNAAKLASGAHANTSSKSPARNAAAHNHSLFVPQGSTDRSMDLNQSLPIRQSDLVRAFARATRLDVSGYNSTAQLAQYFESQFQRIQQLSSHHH

Point of comparison: `CCOc1cccc(C2C(C(=O)c3ccc(C)o3)C(=O)C(=O)N2c2nccs2)c1` (configuration not stated) [2-(3-ethoxyphenyl)-3-(5-methylfuran-2-yl)carbonyl-4-oxidanyl-1-(1,3-thiazol-2-yl)-2H-pyrrol-5-one], EC50 1.41 µM. Against it:
- CCOC(=O)c1c(NC=C2C(=O)NC(=S)NC2=O)sc(C)c1C [ethyl 2-[[4,6-bis(oxidanylidene)-2-sulfanylidene-1,3-diazinan-5-yl]methylideneamino]-4,5-dimethyl-thiophene-3-carboxylate] — higher, > 300 µM
- Cc1cccc(NNC2=c3cc(Br)ccc3=NC2=O)c1 [5-bromo-3-[2-(3-methylphenyl)hydrazinyl]indol-2-one] — 48-fold higher, 68.3 µM
- Cn1c2cc(=N)ccc-2c2ccc(N)cc2c1-c1ccccc1 [(3-amino-5-methyl-6-phenyl-phenanthridin-5-ium-8-yl)amine;bromide] — 9.6-fold higher, 13.5 µM
- COc1ccc(C2C3=C(CC(C)CC3=O)OC(=N)C2C#N)c(OC)c1OC (configuration not stated) [2-amino-5-keto-7-methyl-4-(2,3,4-trimethoxyphenyl)-4,6,7,8-tetrahydrochromene-3-carbonitrile] — higher, > 300 µM
- COc1ccc(N=CCC(=O)c2ccc(C)cc2)cc1OC [SMR000269732] — higher, > 300 µM
- Cc1ccc(C(=O)C2C(=O)C(=O)N(Cc3ccco3)C2c2ccc(N(C)C)cc2)o1 (configuration not stated) [2-[4-(dimethylamino)phenyl]-1-(2-furanylmethyl)-4-hydroxy-3-[(5-methyl-2-furanyl)-oxomethyl]-2H-pyrrol-5-one] — higher, > 300 µM
- O=C1NC(=O)N(CCc2ccccc2)C(=O)C1=CNNC(=O)c1ccncc1 [N'-[(E)-[2,4,6-trioxo-1-(2-phenylethyl)-1,3-diazinan-5-ylidene]methyl]-4-pyridinecarbohydrazide] — higher, > 300 µM
- O=C1C([N+](=O)[O-])=CC(Cl)=CC1/C=N/NC(=O)C(O)(c1ccccc1)c1ccccc1 (configuration not stated) [N''''-[(E)-(3-chloro-5-nitro-6-oxocyclohexa-2,4-dien-1-ylidene)methyl]-2-hydroxy-2,2-diphenylacetohydrazide] — higher, > 300 µM
- C=CCOc1ccc(C2C(C(=O)c3ccco3)C(=O)C(=O)N2c2nnc(C)s2)cc1 (configuration not stated) [3-(furan-2-carbonyl)-4-hydroxy-1-(5-methyl-1,3,4-thiadiazol-2-yl)-2-(4-prop-2-enoxyphenyl)-2H-pyrrol-5-one] — higher, > 300 µM
- CC1(C)CC(=O)C2=C(C1)OC(=N)C(C#N)C2c1ccc(OC(=O)N2CCOCC2)cc1 (configuration not stated) [4-morpholinecarboxylic acid [4-(2-amino-3-cyano-7,7-dimethyl-5-oxo-6,8-dihydro-4H-1-benzopyran-4-yl)phenyl] ester] — higher, > 300 µM
- Cc1ncc(CO)c(CNNC(=O)C2=CC(=O)C(=O)C(=O)C2)c1O [3,4,5-trihydroxy-N'-{(1E)-[3-hydroxy-5-(hydroxymethyl)-2-methylpyridin-4-yl]methylene}benzohydrazide] — 50-fold higher, 71.2 µM
- c1ccc(CN=Nc2nc3ccccc3[nH]2)nc1 — 52-fold higher, 72.9 µM
- O=C1N=c2ccccc2=C1NNc1ccc(F)cc1 — higher, > 300 µM
- COc1ccc(C2C3=C(CC(C)(C)CC3=O)OC(=N)C2C#N)cc1OC (configuration not stated) [2-amino-4-(3,4-dimethoxyphenyl)-5-keto-7,7-dimethyl-6,8-dihydro-4H-chromene-3-carbonitrile] — higher, > 300 µM
- CCN(CC)CCNC=C1C(=O)NC(=O)N(CCc2ccccc2)C1=O [(5E)-5-[[2-(diethylamino)ethylamino]methylene]-1-phenethyl-barbituric acid] — higher, > 300 µM
- CN1CCC2=C(C#N)C(=N)C(C#N)(C#N)[C@H](c3cccc(Cl)c3)C2C1 (stereo partly drawn) [(8S)-6-amino-8-(3-chlorophenyl)-2-methyl-1,3,8,8a-tetrahydroisoquinoline-5,7,7-tricarbonitrile] — 8.9-fold higher, 12.5 µM
- C=CCn1c(=O)c(=Cc2ccsc2)s/c1=C(\C#N)C(=O)NCCN1CCOCC1 [2-[3-allyl-4-keto-5-(3-thenylidene)thiazolidin-2-ylidene]-2-cyano-N-(2-morpholinoethyl)acetamide] — 4.6-fold higher, 6.5 µM
- O=C(O)c1cc(-c2ccc(CN=Nc3ccc([N+](=O)[O-])cn3)o2)ccc1Cl [2-chloro-5-[5-[[(5-nitropyridin-2-yl)hydrazinylidene]methyl]furan-2-yl]benzoic acid] — 22-fold higher, 31 µM
- O=C1Nc2ccccc2C1=NNc1ccccc1 [3-(phenylhydrazo)-2-indolone] — 5.2-fold higher, 7.37 µM
- O=CC(C=Nc1ccccn1)c1nc2ccccc2o1 (configuration not stated) [2-Benzooxazol-2-yl-3-(pyridin-2-ylamino)-propenal] — higher, > 300 µM
- C/N=c1\ccc2nc3ccccc3n(C)c-2c1 [N,10-dimethyl-2-phenazin-10-iumamine;perchlorate] — 15-fold higher, 20.5 µM
- CCOC(=O)C1=C(C)OC(=N)C(C#N)C1c1ccc(O)c(OC)c1 (configuration not stated) [6-amino-5-cyano-4-(4-hydroxy-3-methoxyphenyl)-2-methyl-4H-pyran-3-carboxylic acid ethyl ester] — higher, > 300 µM
- CCOC(=O)N1CCC2=C(C#N)C(=N)C(C#N)(C#N)[C@H](c3ccsc3)[C@H]2C1 [(8R,8aR)-6-amino-5,7,7-tricyano-8-(3-thienyl)-1,3,8,8a-tetrahydroisoquinoline-2-carboxylic acid ethyl ester] — 56-fold higher, 78.8 µM
- Cc1nnc(=O)[nH]c1N=NCC1C=CC(=O)C([N+](=O)[O-])=C1 (configuration not stated) [MLS000585487] — 120-fold higher, 169 µM
- Cc1c(NC=C2C(=O)NC(=O)N(Cc3ccco3)C2=O)c(=O)n(-c2ccccc2)n1C [(5E)-1-(2-furfuryl)-5-[[(3-keto-1,5-dimethyl-2-phenyl-3-pyrazolin-4-yl)amino]methylene]barbituric acid] — higher, > 300 µM
- CS(=O)(=O)Nc1nc2n(n1)C(c1ccccc1)CC(c1ccc(Br)cc1)=N2 (configuration not stated) — higher, > 300 µM
- Cc1nnc(N2C(=O)C(=O)C(C(=O)c3ccco3)C2c2cccc3ccccc23)s1 (configuration not stated) [3-(furan-2-carbonyl)-4-hydroxy-1-(5-methyl-1,3,4-thiadiazol-2-yl)-2-naphthalen-1-yl-2H-pyrrol-5-one] — higher, > 300 µM
- Cc1ccc(C(=O)Cc2nc3cc(C)ccc3oc2=O)cc1 [(3Z)-3-[2-keto-2-(p-tolyl)ethylidene]-6-methyl-4H-1,4-benzoxazin-2-one] — 5.4-fold higher, 7.64 µM
- Cc1ccc(Cl)c2c1=NC(=O)C=2NNc1ccccc1 — 13-fold higher, 18.6 µM
- COc1ccc(C(C)N=Nc2nc3ccccc3nc2C)cc1OC (configuration not stated) [MLS001029936] — 3.6-fold higher, 5.07 µM
- CC(=O)Nc1ccc(N=CCC(=O)c2ccc(C)o2)cc1 [MLS000089004] — higher, > 300 µM
- Cc1cc(C(=O)NN=CC2C=C(Cl)C=C([N+](=O)[O-])C2=O)[nH]n1 (configuration not stated) [SMR000414694] — higher, > 300 µM
- O=C(NN=CC1=CC(=O)C(=O)CC1)NN=CC1=CC(=O)C(=O)CC1 [1,3-bis[[(Z)-(3-hydroxy-4-oxocyclohexa-2,5-dien-1-ylidene)methyl]amino]urea] — 11-fold higher, 16.2 µM
- COc1ccc(OC)c(C2C(C(=O)c3ccco3)C(=O)C(=O)N2CCN2CCOCC2)c1 (configuration not stated) [2-(2,5-dimethoxyphenyl)-3-(furan-2-carbonyl)-4-hydroxy-1-(2-morpholin-4-ylethyl)-2H-pyrrol-5-one] — higher, > 300 µM
- CC(=O)C1C(c2ccccc2)=NC(=O)NC1c1ccc(O)c(O)c1 (configuration not stated) [4-[3,4-bis(oxidanyl)phenyl]-5-ethanoyl-6-phenyl-3,4-dihydro-1H-pyrimidin-2-one] — higher, > 300 µM
- C=c1c(C(=O)OC)c(O)c(=Cc2cccs2)n1-c1ccc(Cl)cc1 [(5E)-1-(4-chlorophenyl)-2-methyl-4-oxo-5-(thiophen-2-ylmethylidene)-3-pyrrolecarboxylic acid methyl ester] — higher, > 300 µM
